Patent US20110039770A1, “INHIBITORS OF PROTEIN KINASE C ISOFORMS AND USES THEREOF” (PHARMAGAP INC., priority 2005, published 2011)
Where a SMILES comes first, the peptide text is derived from it.

Columns and labels:
[1] = target: T1, PKC-β (Homo sapiens, UniProt P05771); test: Competition of PRE with PKC-β antibody binding, Protocol A, IMR-32 lysate
T1 construct: PRE 2 and PRE 3 in IMR-32 Neuroblastoma Cells: Protocol A; endogenous in cells; host or cells: IMR-32 human neuroblastoma cells
Description: (§1) Cell lysates from either IMR-32 (human neuroblastoma) cells or C6Cx43 cells (rat glioma transfected cells overexpressing connexin 43) were obtained using standard protocols and the proteins of the lysate were separated by SDS PAGE electrophoresis and electrotransferred onto a nitrocellulose membrane. The membrane was incubated for 30 minutes in blocking buffer (TBST) containing the test peptide at either 5× or 20× the concentrations of the primary antibody. A primary polyclonal antibody specific for PKC-α (Santa Cruz Biotechnology, Inc., CA) was then added (15 μg/ml) and the membrane incubated for a further 45 minutes. Finally, the primary antibody was detected with a secondary antibody conjugated to alkaline phosphatase using standard procedures. The intensity of the band corresponding to PKC-α was assessed by scanning and densitometry using the Gel-Pro software (Media Cybernetics) to obtain relative band intensities (average of 3 replicas). Control assays were conducted as described above except that blocking buffer without peptide was used.
Peptides PRE 1, PRE 2 and PRE 3 (see Table 4) were tested for their ability to interfere with the binding of a PKC-β-specific polyclonal antibody (Santa Cruz Biotechnology, Inc.) to PKC-β using the general protocol described in Example 1. […] It is worth noting in this regard that PKC-α and PKC-β belong to the same sub-group of PKCs (cPKCs).

[2] = target: T2, PKC-α (Homo sapiens, UniProt P17252); test: Competition of PRE with PKC-α antibody binding on Western blot, Protocol A, IMR-32 lysate; set-up: endogenous PKC-α in (A) untreated human neuroblastoma (IMR-32) cells; endogenous in cells; host or cells: IMR-32 human neuroblastoma cells; settings: IMR-32 cells
Description: The ability of the PRE 1, 2 and 3 (see Table 3 above) to interfere with the binding of a PKC-α-specific polyclonal antibody to PKC-α was determined using the following protocol.
as §1
The results are expressed as relative band intensity and as a percentage of the intensity of the corresponding band in the control assay (“Relative intensity (%)”). “% inhibition” relates to the percentage of the PKC-α band that is inaccessible to the antibody.

[3] = target: PKC-βI (Homo sapiens, UniProt P05771); test: Competition of PRE with PKC-βI antibody binding, Protocol B, IMR-32; set-up: PKC-βII by PRE 3 and PRE 4 in IMR-32 Neuroblastoma; endogenous in cells; host or cells: IMR-32 human neuroblastoma cells; settings: for Band Intensity: Protocol B (control 170.5)
Description: (§2) The ability of the peptides PRE 2 and PRE 3 (see Table 4) to interfere with the binding of a PKC-α-specific polyclonal antibody (Santa Cruz Biotechnology, Inc.) to PKC-α was determined using a modified version of the protocol outlined above in which the test peptide was added directly to the cell extract prior to electrophoresis at a concentration of either 5× or 15× the concentration of the protein applied to each well of the gel for the Western blots (20 μg).
(§3) Peptides PRE 3 and PRE 4 (see Table 4) were tested for their ability to interfere with the binding of isoform-specific polyclonal antibodies (Santa Cruz Biotechnology, Inc.) to PKC-α, PKC-βI or PKC-βII using the general protocol described in Example 3.

[4] = target: PKC-βII (Homo sapiens, UniProt P05771); test: Competition of PRE with PKC-βII antibody binding, Protocol B, IMR-32; set-up: PKC-βII by PRE 3 and PRE 4 in IMR-32 Neuroblastoma; endogenous in cells; host or cells: IMR-32 human neuroblastoma cells; settings: Protocol B (control 98.6)
Description: as §2, §3

[5] = target: T2, PKC-α; test: Competition of PRE with PKC-α antibody binding, Protocol B (peptide added to cell extract before electrophoresis), IMR-32; set-up: endogenous PKC-α in (A) untreated human neuroblastoma (IMR-32) cells; endogenous in cells; host or cells: IMR-32 human neuroblastoma cells
Description: as §3

[6] = target: T2, PKC-α; test: Subcellular localisation of PKC-α in IMR-32 cells; assay type: cell-based; set-up: endogenous PKC-α in (A) untreated human neuroblastoma (IMR-32) cells; endogenous in cells; host or cells: IMR-32 human neuroblastoma cells; settings: 10 mg/ml, pinocytic endocytosis
Description: Peptides PRE 3 or PRE 4 (10 mg/ml) were introduced into human neuroblastoma cells (IMR-32) by pinocytic endocytosis. The cells were fixed and stained with rabbit PKC-α primary antibody and anti-rabbit Alexa-488 or Alexa-800 secondary antibody.

[7] = 100 μg, Example 5 (control 302.5)
[8] = 200 μg, Example 5 (control 302.5)
[9] = 300 μg, Example 5 (control 302.5)

T1 sequence (P05771 whole entry): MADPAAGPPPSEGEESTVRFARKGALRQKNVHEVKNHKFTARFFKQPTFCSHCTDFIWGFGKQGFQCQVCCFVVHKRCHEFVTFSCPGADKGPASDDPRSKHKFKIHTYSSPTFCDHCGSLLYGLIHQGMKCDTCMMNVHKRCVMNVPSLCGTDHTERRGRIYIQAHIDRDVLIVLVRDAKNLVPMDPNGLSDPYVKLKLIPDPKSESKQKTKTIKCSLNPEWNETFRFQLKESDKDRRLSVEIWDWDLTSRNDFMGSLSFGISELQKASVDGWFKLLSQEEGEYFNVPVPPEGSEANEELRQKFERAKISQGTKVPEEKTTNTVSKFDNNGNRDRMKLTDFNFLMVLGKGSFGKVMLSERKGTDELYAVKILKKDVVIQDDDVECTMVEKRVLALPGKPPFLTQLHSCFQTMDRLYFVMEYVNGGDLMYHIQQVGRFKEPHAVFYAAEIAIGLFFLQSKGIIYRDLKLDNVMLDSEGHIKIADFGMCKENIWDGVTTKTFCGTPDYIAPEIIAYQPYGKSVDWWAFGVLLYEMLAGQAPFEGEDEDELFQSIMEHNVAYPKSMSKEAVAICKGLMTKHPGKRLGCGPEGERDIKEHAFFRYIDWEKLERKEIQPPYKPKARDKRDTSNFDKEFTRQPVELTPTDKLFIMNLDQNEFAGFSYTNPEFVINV
PKC-βI, sequence (P05771 whole entry): as above
PKC-βII, sequence (P05771 1-673 isoform P05771-2): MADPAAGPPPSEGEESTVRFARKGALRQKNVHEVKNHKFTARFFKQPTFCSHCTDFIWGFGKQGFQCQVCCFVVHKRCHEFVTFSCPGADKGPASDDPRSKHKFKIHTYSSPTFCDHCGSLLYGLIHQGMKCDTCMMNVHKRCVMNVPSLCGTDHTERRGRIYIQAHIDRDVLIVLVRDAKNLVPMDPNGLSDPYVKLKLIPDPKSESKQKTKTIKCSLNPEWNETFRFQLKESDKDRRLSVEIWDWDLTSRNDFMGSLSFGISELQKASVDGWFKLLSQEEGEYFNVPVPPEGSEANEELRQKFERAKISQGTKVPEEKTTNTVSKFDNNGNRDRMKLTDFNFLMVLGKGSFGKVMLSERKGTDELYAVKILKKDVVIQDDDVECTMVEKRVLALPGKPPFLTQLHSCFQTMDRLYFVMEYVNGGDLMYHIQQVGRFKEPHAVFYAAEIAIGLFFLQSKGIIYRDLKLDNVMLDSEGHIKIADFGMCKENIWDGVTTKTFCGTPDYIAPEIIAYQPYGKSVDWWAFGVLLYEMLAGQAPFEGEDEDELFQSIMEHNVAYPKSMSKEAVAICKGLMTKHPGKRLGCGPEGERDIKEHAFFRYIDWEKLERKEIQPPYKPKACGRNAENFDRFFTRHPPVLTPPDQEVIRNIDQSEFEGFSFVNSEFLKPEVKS

Compound	Band Intensity ([1]; 75 μg)	Inhibition (%) ([1]; 75 μg)	Band Intensity ([1]; 300 μg)	Inhibition (%) ([1]; 300 μg)	Band Intensity ([2]; 75 μg)	Band Intensity ([2]; 300 μg)	Band Intensity ([3]; 100 μg)	Band Intensity ([3]; 200 μg)	Band Intensity ([3]; 300 μg)	Band Intensity ([4]; 100 μg)	Band Intensity ([4]; 200 μg)	Band Intensity ([4]; 300 μg)	Band Intensity [5, 7]	Band Intensity [5, 8]	Band Intensity [5, 9]	effect on subcellular localisation of PKC-α [6]	other results
RRKKGGKDFVVKR [PRE 1]	0.825	28.9	0.528	54.5	1.040	0.771	–	–	–	–	–	–	–	–	–	–	Relative Intensity (%) ([1]; 75 μg): 71.1%; Relative Intensity (%) ([1]; 300 μg): 45.5%; Inhibition (%) ([2]; 75 μg): 50.2%; Relative Intensity (%) ([2]; 75 μg): 49.8%; Inhibition (%) ([2]; 300 μg): 63.1%; Relative Intensity (%) ([2]; 300 μg): 36.9%
CC[C@H](C)[C@H](NC(=O)[C@H](CO)NC(=O)[C@@H](NC(=O)CNC(=O)[C@@H](NC(=O)[C@H](CC(C)C)NC(=O)[C@H](CC(N)=O)NC(=O)[C@H](CCC(N)=O)NC(=O)[C@H](C)NC(=O)[C@H](CC(=O)O)NC(=O)[C@H](CCCCN)NC(C)=O)[C@@H](C)CC)[C@@H](C)CC)C(N)=O [PRE 4, Ac-KDAQNLIGISI-NH2] (Ac-KDAQNLIGISI-NH2)	–	–	–	–	–	–	112.5	0.0	0.0	69.58	0.0	0.0	32.2	1.5	0.0	prevented translocation of PKC-α to the membrane	–
CC[C@H](C)[C@H](NC(=O)[C@H](CO)NC(=O)[C@@H](NC(=O)CNC(=O)[C@@H](NC(=O)[C@H](CC(C)C)NC(=O)[C@H](CC(N)=O)NC(=O)[C@H](CCC(N)=O)NC(=O)[C@H](C)NC(=O)[C@H](CC(=O)O)NC(=O)CNC(=O)CNC(=O)[C@H](CCCCN)NC(=O)[C@@H](NC(=O)[C@H](CCC(=O)O)NC(=O)[C@H](CCC(N)=O)NC(=O)[C@@H](NC(=O)CNC(=O)[C@H](CCCCN)NC(=O)[C@H](C)NC(C)=O)[C@@H](C)CC)C(C)C)[C@@H](C)CC)[C@@H](C)CC)C(N)=O [PRE 3] (Ac-AKGIQEVKGGDAQNLIGISI-NH2)	1.900	0.0	1.900	0.0	0.889	0.922	0.0	0.0	0.0	0.0	0.0	0.0	0.0	0.0	0.0	does not alter the subcellular localisation of PKC-α	remaining activity at 0.075 mg ([1]; 75 μg, read-out: Relative Intensity (%)): 102%; remaining activity at 0.3 mg ([1]; 300 μg, read-out: Relative Intensity (%)): 102%; Band Intensity ([1]; 600 μg): 1.847; Inhibition (%) ([1]; 600 μg): 0.0%; remaining activity at 0.6 mg ([1]; 600 μg, read-out: Relative Intensity (%)): 99.6%; Relative Intensity (%) ([3]; 200 μg, Protocol B): 0.0%; Band Intensity ([5]; 100 μg, Example 3 (control 0.759)): 0.0; Band Intensity ([5]; 200 μg, Example 3 (control 0.759)): 0.0; Band Intensity ([5]; 300 μg, Example 3 (control 0.759)): 0.0
